Reference: PubChem BioAssay AID179 (DTP/NCI, 2004)
The source made the active and inactive calls.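 How the source made its calls: active means compounds giving half or more protection of infected cells from virus-caused growth loss, again on retest; inactive means the rest.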 Where a SMILES comes first, the peptide text is derived from it. The star is where a group is joined. Boc = CC(C)(C)OC(=O)*; Bn = c1ccc(C*)cc1

System: CEM cells HIV-1 protection, formazan growth assay
Assay: NCI AIDS Antiviral Assay
Conditions: for IC50: measured here: growth of uninfected CEM cells
Method in brief: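 Human CEM cells, uninfected and HIV-1-infected, received five drug concentrations, and growth was read by soluble formazan assay. Compounds giving at least 50% protection were retested; reproducible 100% protection defined confirmed active.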

| Compound | EC50 | IC50 | outcome |
| --- | --- | --- | --- |
| CCOC(=O)NC(Nc1ccc(OC(F)(F)F)cc1)(C(F)(F)F)C(F)(F)F | > 200 µM | 105 µM | – |
| O=C(O)CCC(=O)N1c2ccccc2CC1c1c[nH]c2ccccc12 (configuration not stated) | > 741 µM | 158 µM | – |
| C=CC(C)(C)n1cc(C2=C(O)C(=O)C(c3cn(C(C)(C)C=C)c4ccccc34)=C(O)C2=O)c2ccccc21 | > 22.4 µM | 12.3 µM | – |
| COC(=O)c1cc(=O)n2c(sc3ccccc32)c1C(=O)c1ccccc1 | > 10 µM | > 10 µM | – |
| COc1cc2c3c(c1OC)C1(C=CC(=O)C=C1)CC3N(C(C)=O)CC2 (configuration not stated) | – | – | inactive |
| Cc1ccc(S(=O)(=O)c2c(O)c3ccccc3n(C)c2=O)cc1 | > 200 µM | > 200 µM | – |
| CCOP(=O)(OCC)c1cc2cc(O)ccc2oc1=O | > 200 µM | > 200 µM | – |
| CS(=O)(=O)Nc1ccc2c(c1)N(S(C)(=O)=O)CC2CCl (configuration not stated) | > 200 µM | 166 µM | – |
| Cc1ccc(C(=O)Nc2ccc(S(=O)(=O)O)c3cc(S(=O)(=O)O)cc(S(=O)(=O)O)c23)cc1NC(=S)Nc1cc(C(=O)Nc2ccc(S(=O)(=O)O)c3cc(S(=O)(=O)O)cc(S(=O)(=O)O)c23)ccc1C | 132 µM | 204 µM | – |
| Cc1cn(C2CC(O)C(CNC(=O)NO)O2)c(=O)[nH]c1=O (configuration not stated) | > 200 µM | > 200 µM | – |
| Nc1ccc2c3c1cccc3c(=O)n1c3ccc(Cc4ccc5c(c4)nc4c6ccc(N)c7cccc(c(=O)n54)c76)cc3nc21 | > 100 µM | – | – |
| O=C(CCSSc1ccccn1)ON1C(=O)CCC1=O | > 50.1 µM | > 50.1 µM | – |
| CNC(=O)C(C)NC(=O)C(Cc1ccccc1)NC(=O)c1ccccc1 (configuration not stated) | > 200 µM | > 200 µM | – |
| CC(Nc1ccc(Cl)c(Cl)c1)c1ccncc1 (configuration not stated) | > 200 µM | 28.8 µM | – |
| CCn1c2cc(C)c(C)cc2nc2cc3c(cc21)c(Cl)c(=O)c1ccccc13 | > 200 µM | > 200 µM | – |
| Nc1c(Br)cc2c(c1Br)Cc1cc(N=Nc3ccccc3)ccc1-2 | 51.3 µM | 102 µM | – |
| O=C(CCCN1CCc2[nH]c3cc(F)ccc3c2C1)c1ccc(F)cc1 | > 200 µM | 24.5 µM | – |
| CCOC(=O)C(Cc1ccc2c(c1)CCC2)Cc1ccc2c(c1)CCC2 | > 200 µM | 1.62 µM | – |
| CCOC(=O)C(NC(=O)c1ccccc1)(Nc1cc(C)on1)C(F)(F)F (configuration not stated) | > 200 µM | > 200 µM | – |
| CCCCCCCCCCCC(=O)OCC1OC(n2cc(F)c(=O)[nH]c2=O)C(N)C(O)C1O (configuration not stated) | > 55 µM | > 55 µM | – |
| CN(N)/N=N/c1nc[nH]c1[N+](=O)[O-] | > 200 µM | 5.62 µM | – |
| O=CC1CCC=CC1NC(=O)OCc1ccccc1 (configuration not stated) | – | – | inactive |

| Compound | EC50 | IC50 | outcome |
| --- | --- | --- | --- |
| O=C(OCc1ccccc1)N1CCN(C(=O)OCc2ccccc2)CCN(C(=O)OCc2ccccc2)CCN(C(=O)OCc2ccccc2)CCN(C(=O)OCc2ccccc2)CC1 | > 100 µM | > 100 µM | – |
| COC(=O)c1cc(CC2Cc3cc4c(cc3C2=O)CCC4)cc2c1CCC2 (configuration not stated) | 33.1 µM | > 200 µM | – |
| C=C1c2nc3ccccc3n2C=C(c2ccccc2)N1c1ccc([N+](=O)[O-])cc1 | > 200 µM | 42.7 µM | – |
| Nc1nc(N)nc(NCCSSCCNc2nc(N)nc(N)n2)n1 | > 200 µM | 97.7 µM | – |
| CC(C)C1OC(N)=C(C#N)C1(C#N)C#N (configuration not stated) | > 200 µM | 7.41 µM | – |
| Cc1ccc(C)c(N2C(=O)C(=O)C(c3nc4ccccc4s3)C(=O)C2=O)c1 | – | – | inactive |
| CC1(C)C(O)C[C@]23CCC[C@](C)(C[C@@H](O)C12)C3 (some centres not stated) | > 200 µM | > 200 µM | – |
| C[C@]12CC[C@H](O)CC1=CCC1C2CC[C@@]2(C)C1CC[C@@H]2COS(=O)(=O)O (some centres not stated) | > 61.7 µM | > 61.7 µM | – |
| CC1=CC(C)(C)NC(=S)N1c1ccccc1O | – | – | inactive |
| Cc1ccc(-c2cc(=O)c3cc(C)c(C)c(C(=O)O)c3o2)cc1C | – | – | inactive |
| COC(=O)/C=C1\C(CO[Si](C)(C)C(C)(C)C)OC(n2ccc(=O)[nH]c2=O)C1O (configuration not stated) | > 200 µM | 6.17 µM | – |
| c1ccc(P2c3ccccc3Oc3ccccc32)cc1 | > 200 µM | 35.5 µM | – |
| Cc1nc(N)c2cnn(C)c2n1 | > 1510 µM | 708 µM | – |
| Cc1cn(COCCCOCC(=O)c2ccccc2)c(=O)[nH]c1=O | 93.3 µM | > 200 µM | – |
| c1ccc(-c2c3c(nc4c2CC[C@H]4NC2=NCCN2)[C@@H](NC2=NCCN2)CC3)cc1 | > 200 µM | > 200 µM | – |
| CC(=O)CC(N)=O | – | – | inactive |
| O=c1[nH]c(=O)n([C@H]2CCCO2)cc1F | > 631 µM | 102 µM | – |
| N/N=C(\CCN1CCCC1)CC(c1ccccc1)c1c(O)c2ccccc2oc1=O (configuration not stated) | > 58.9 µM | > 58.9 µM | – |
| N/C(=N\N=C\c1cccc2ccccc12)N/N=C/c1cccc2ccccc12 | > 200 µM | 9.12 µM | – |
| [N-]=[N+]=NC1C(O)C(O)C(O)C(O)C1O (configuration not stated) | > 603 µM | > 603 µM | – |
| CCCCCCCCC(O)C(O)CCCCCCCC(=O)O (configuration not stated) | > 200 µM | 53.7 µM | – |
| Cc1c(CO)[n+](=O)c2ccccc2n1[O-] | > 200 µM | > 200 µM | – |

| Compound | EC50 | IC50 | outcome |
| --- | --- | --- | --- |
| COc1cc(C)c(C(=O)/C=C/c2cc(OC)c(O)c(OC)c2)cc1O | > 275 µM | 12.9 µM | – |
| O=C1OC(O)C(Oc2ccc(Cl)cc2)=C1Cl (configuration not stated) | > 437 µM | 195 µM | – |
| COc1cc([C@H]2CC(=O)C[C@H](c3cc(OC)c(OC)c(OC)c3)C23C(=O)c2ccccc2C3=O)cc(OC)c1OC | > 200 µM | > 200 µM | – |
| O=[N+]([O-])c1cc2ccc(O)cc2c2ccccc12 | 51.3 µM | 61.7 µM | – |
| NC1CC(=O)c2c1sc(Cl)c2Cl (configuration not stated) | – | – | inactive |
| [N-]=[N+]=Nc1ccccc1Oc1ccccc1 | 58.9 µM | 89.1 µM | – |
| COC(=O)c1c/c(=N\NC(=O)CC(=O)Nc2ccccc2OC)c2ccccc2o1 | > 229 µM | > 229 µM | – |
| C/C(=N\NC(N)=S)c1ccc2c(c1)OCO2 | – | – | inactive |
| CCC[CH2][Ge]([CH2]CCC)([CH2]CCC)[O]C(=O)C(OC(C)=O)c1ccccc1 (configuration not stated) | > 151 µM | 4.27 µM | – |
| O=C1C2=Cc3ccccc3OC2(O)Oc2ccc(O)cc21 (configuration not stated) | > 200 µM | 50.1 µM | – |
| COC(=O)C(CC(C)C)NC(=O)CNC(=O)C(Cc1ccc(OCc2ccccc2)cc1)NC(=O)C(COCc1ccccc1)NC(=O)OC(C)(C)C (configuration not stated) (Boc-S(Bn)Y(Bn)GL-OMe; configuration not given here) | > 200 µM | 115 µM | – |
| O=P(O)(OCCc1ccccc1)Oc1ccccc1O | > 200 µM | > 200 µM | – |
| Nc1nc2c(ncn2COCCO)c(=O)[nH]1 | > 794 µM | > 794 µM | – |
| O=Nc1c(NO)ccc2nn(-c3ccccc3)nc12 | > 20 µM | 1.32 µM | – |
| CCOP(=O)(OCC)C(c1ccc(F)cc1)N(C(=O)NC(F)(F)F)c1cccc(C(F)(F)F)c1 (configuration not stated) | > 200 µM | 145 µM | – |
| CCC[CH2][Sn]([CH2]CCC)([O]c1cccc2cccnc12)[O]c1cccc2cccnc12 | – | – | inactive |
| C=C(C)[C@@]1(O[Si](C)(C)C)CCCC[C@@H]1CC(Sc1ccccc1)Sc1ccccc1 | > 200 µM | 11.5 µM | – |
| C/C=C/C=Nc1c(C#N)c2n(c1C(=O)Nc1ccc(C)cc1)CCC2 | > 50.1 µM | > 50.1 µM | – |
| COc1cccc(/C=N/[N-]C(N)=O)c1[O-].[Cu+2].[OH3+].c1cnc2c(c1)ccc1cccnc12 | > 39.8 µM | 16.2 µM | – |
| O[C@H]1[C@H]2c3cc4c(cc3CN3CCC(=C[C@@H]1O)[C@H]23)OCO4 | > 2 µM | 0.372 µM | – |
| O=[N+]([O-])c1cccc([N+](=O)[O-])c1Cl | > 200 µM | 16.6 µM | – |
| CCN(CC)C(=O)Cc1[nH][nH]c(=O)c1C(=O)N(CC)CC | > 851 µM | > 851 µM | – |

| Compound | EC50 | IC50 | outcome |
| --- | --- | --- | --- |
| c1ccc2c(c1)SCCCS2 | > 39.8 µM | > 39.8 µM | – |
| CC1C(=O)NC(=O)CC(=O)NC1=O | > 1350 µM | > 1350 µM | – |
| CCOC(=O)c1sc(Nc2cc(Cl)ccc2Cl)nc1C | – | – | inactive |
| CCOC(=O)C1C(=O)c2ccccc2CN1Cc1ccccc1 (configuration not stated) | – | – | inactive |
| OCCCCCCOc1ccc(-c2cc(-c3ccccn3)nc(-c3ccccn3)c2)cc1 | > 12.3 µM | 1.91 µM | – |
| COC(=O)C[P+](c1ccccc1)(c1ccccc1)c1ccccc1 | > 200 µM | > 200 µM | – |
| C=C1C(=O)O[C@@H]2C=C(C)C3=CC(=O)[C@](C)(C[C@H](OC(=O)/C(C)=C\C)[C@@H]12)O3 | > 5.37 µM | 0.224 µM | – |
| O=c1cc(N2CCNCC2)nc2ccccn12 | > 200 µM | > 200 µM | – |
| CCNC(=S)N/N=C(\C)c1ccccn1 | > 0.2 µM | 0.0158 µM | – |
| COc1ccc(OC)c(NS(=O)(=O)c2ccc3nc(C)n(NS(=O)(=O)c4cc(OC)ccc4OC)c(=O)c3c2)c1 | > 200 µM | 43.7 µM | – |
| Cc1ccc(S(=O)(=O)NC(N)=NCCCC(NC(=O)OCc2ccccc2)C(=O)N[C@H]2CC[C@H]3[C@@H]4CC=C5C[C@@H](O)CC[C@]5(C)[C@H]4CC[C@]23C)cc1 (some centres not stated) | > 200 µM | 34.7 µM | – |
| CCCCc1ccc(Nc2nc(N)c3[nH]cnc3n2)cc1 | > 200 µM | 24.5 µM | – |
| CC(=O)NCC1OC2COC(c3ccccc3)OC2C2N=C(c3ccccc3)OC12 (configuration not stated) | – | – | inactive |
| O=C(OC[C@H]1OCC(=O)C2(OC(=O)c3ccccc3)C3C=CC(C3)C12)c1ccccc1 (some centres not stated) | – | – | inactive |
| O=C1C2C3C=C4c5ccccc5N(c5ccccc5)C4([C@@H]2C(=O)N1c1ccc(F)cc1)[C@H]1C(=O)N(c2ccc(F)cc2)C(=O)[C@@H]31 (some centres not stated) | > 12 µM | > 12 µM | – |
| N#Cc1c(N2CCCC2)[nH]c(=O)n(-c2ccccc2)c1=S | > 200 µM | > 200 µM | – |
| CON[C@@H]1C[C@H](n2cc(C)c(=O)[nH]c2=O)O[C@@H]1CO[Si](C)(C)C(C)(C)C | > 200 µM | 107 µM | – |
| CC[N+](C)(CC)CCC(O)(c1ccccc1)c1ccccc1 | > 200 µM | > 200 µM | – |
| COC1/C=C\OC2(C)Oc3c(C)c(O)c4c(O)c(c(/C=N\N5CCCC5)c(O)c4c3C2=O)NC(=O)/C(C)=C\C=C/C(C)C(O)C(C)C(O)C(C)C(OC(C)=O)C1C (configuration not stated) | – | – | inactive |
| Cc1cc2nc3[nH]c4ccccc4c3nc2cc1C | > 20.9 µM | > 20.9 µM | – |
